Experimental data reported in PubChem BioAssay (NCI).
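Results reflect a 48-hour exposure of cells in 96-well plates to compound at five concentrations. At the GI50, growth is halved. TGI: concentration producing complete growth inhibition.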

Experiments:
Experiment in all cases: NCI tumour cell line growth inhibition, 48 h
COLO 205 colon = test system: COLO 205 colon
RXF 393 renal = test system: RXF 393 renal
NCI-H460 lung = test system: NCI-H460 lung
HOP-62 NSCLC = test system: HOP-62 NSCLC
RPMI-8226 leukemia = test system: RPMI-8226 leukemia
LOX IMVI melanoma = test system: LOX IMVI melanoma
OVCAR-3 ovarian = test system: OVCAR-3 ovarian
786-0 renal = test system: 786-0 renal
MALME-3M melanoma = test system: MALME-3M melanoma
MDA-N = test system: MDA-N
MOLT-4 leukemia = test system: MOLT-4 leukemia
SF-295 CNS = test system: SF-295 CNS
SW-620 colon = test system: SW-620 colon
IGROV1 ovarian = test system: IGROV1 ovarian
NCI-H522 lung = test system: NCI-H522 lung
CCRF-CEM leukemia = test system: CCRF-CEM leukemia
NCI-H23 lung = test system: NCI-H23 lung
T-47D breast = test system: T-47D breast
MDA-MB-435 = test system: MDA-MB-435

| Compound | TGI (COLO 205 colon) [µM] | TGI (RXF 393 renal) [µM] | TGI (NCI-H460 lung) [µM] | TGI (HOP-62 NSCLC) [µM] | TGI (RPMI-8226 leukemia) [µM] | TGI (LOX IMVI melanoma) [µM] | TGI (OVCAR-3 ovarian) [µM] | TGI (786-0 renal) [µM] | TGI (MALME-3M melanoma) [µM] | TGI (MDA-N) [µM] | TGI (MOLT-4 leukemia) [µM] | TGI (SF-295 CNS) [µM] | TGI (SW-620 colon) [µM] | TGI (IGROV1 ovarian) [µM] | TGI (NCI-H522 lung) [µM] | TGI (CCRF-CEM leukemia) [µM] | TGI (NCI-H23 lung) [µM] | TGI (T-47D breast) [µM] | TGI (MDA-MB-435) [µM] | GI50 (LOX IMVI melanoma) [µM] |
| --- | --- | --- | --- | --- | --- | --- | --- | --- | --- | --- | --- | --- | --- | --- | --- | --- | --- | --- | --- | --- |
| CCC1(C(=O)OC(C)(C)C)OC12C(C)CCCC2C (centres undefined) | 63 | 36.4 | > 100 | > 100 | 49.9 | 96.1 | > 100 | > 100 | > 100 | > 100 | 41.2 | > 100 | > 100 | > 100 | > 100 | 39.8 | > 100 | > 100 | > 100 |  |
| COC(=O)[C@H](Cc1ccccc1)NC(=O)[C@H](Cc1ccccc1)NC(=O)[C@@H]1CCCN1C(=O)N[C@H]1C2C=CC(C2)C1C(=O)N1CCC[C@H]1C(=O)N[C@@H](C)C(=O)N[C@H](C(=O)OC)C(C)C (some centres undefined) | > 100 | > 100 | > 100 | > 100 |  | > 100 | > 100 | > 100 | > 100 | > 100 | 85.6 | > 100 | > 100 | > 100 | > 100 | 56.4 | > 100 | > 100 | > 100 |  |
| CCn1nc2c3c(ncn3C(C)(C)O2)c1=O | > 100 | > 100 | > 100 | > 100 | > 100 | > 100 |  | > 100 | > 100 | > 100 | > 100 | > 100 | > 100 | > 100 | > 100 | > 100 | > 100 | > 100 | > 100 |  |
| CN(C)c1ccc(C2SCC(=O)N2NS(=O)(=O)c2cccc(C(=O)O)c2)cc1 (centres undefined) | > 100 | > 100 | > 100 | > 100 | > 100 | > 100 | > 100 | 31 | > 100 | > 100 | > 100 | > 100 | > 100 | > 100 | > 100 | > 100 | > 100 | > 100 | > 100 |  |
| CC1=NN2C(=N)/C(=C/c3ccco3)C(=O)N=C2S1 | > 100 | > 100 | > 100 | > 100 | > 100 | > 100 | > 100 | > 100 | > 100 | > 100 | > 100 | > 100 | > 100 | > 100 | > 100 | > 100 | > 100 | > 100 | > 100 |  |
| Cc1ccc2c(=O)cc(-c3cccs3)[nH]c2n1 | 25.2 | > 62.6 | > 100 | > 100 | > 49.4 | > 100 | > 100 | > 100 | > 100 | 3.78 | > 100 | > 69.6 | > 30.1 | > 100 | > 47.4 | > 87.6 | > 63.6 | > 67.7 | 5.65 |  |
| COc1ccc(/C=N/N=C(\N)NO)c(O)c1 | > 10 | > 10 | > 10 | > 10 | > 10 | > 10 | > 10 | > 10 | > 10 | > 10 | > 10 | > 10 | > 10 | > 10 | > 10 | > 10 | > 10 | > 10 | 4.49 |  |
| NC(=O)NNC(=O)c1nc[nH]c1[N+](=O)[O-] | > 100 | > 100 | > 100 | > 100 | > 100 | > 100 | > 100 | > 100 | > 100 | > 100 | > 100 |  | > 100 | > 100 | > 100 | > 100 | > 100 | > 100 | > 100 |  |
| CCCCCC(=O)NC(=S)Nc1nn[nH]n1 | > 100 | > 100 | > 100 | > 100 | > 100 | > 100 | > 100 | > 100 | > 100 | > 100 | > 100 | > 100 | > 100 | > 100 | > 100 | > 100 | > 100 | > 100 | > 100 |  |
| CC(=O)c1ccc2c3c1[C@@H]1O[C@@H]1c1cccc(c1-3)[C@@H]1O[C@H]21 | 28.2 | 25.8 |  | 36.6 | > 100 | 6.21 | 30.4 | 24.9 | 20.3 | 39.9 | > 100 | 38.3 | 7.99 | 2.44 | 13 | > 100 | 23.3 | 23.7 | 25.7 | 2.6 |
| Cc1ccc([C@H]2CC(=O)C[C@H](c3ccc(C)cc3)C23C(=O)c2ccccc2C3=O)cc1 | > 100 | 39 | > 100 | 41.8 | > 100 | > 100 | > 100 | 31.7 | > 100 | > 100 | > 100 | 51.9 | > 100 | > 100 | 26.5 | 59.9 | > 100 | > 100 | > 100 |  |
| CC1(CF)SCc2nc3ccccc3n21 (centres undefined) | > 100 | > 100 | > 100 | > 100 | > 100 | > 100 | > 100 | > 100 | > 100 | > 100 |  | > 100 | > 100 | > 100 | > 100 |  | > 100 | > 100 | > 100 |  |
| C=CCCC(=O)CC(O)(C(F)(F)F)C(F)(F)F | > 100 | > 100 | > 100 |  | > 100 | > 100 | > 100 | > 100 | > 100 | > 100 | > 100 | > 100 | > 100 | > 100 | > 100 | > 100 | > 100 | > 100 | > 100 |  |
| CCOP(=O)(OCC)c1c(C(=O)OC)cc(=O)[nH]c1-c1ccc(C)cc1 | 15.2 | 27.3 | 43.4 | 41.7 | 19.8 | > 100 | 25.2 | > 53.4 | 19.9 | > 61.1 | 20.6 | 40.9 | 23.5 | 20.6 | 3.03 | 6.91 | 33.5 | 18.1 | 37.4 |  |
| O=c1c2ncn(COCCCl)c2n(-c2ccccc2)c(=S)n1-c1ccccc1 | > 100 | > 100 | > 100 | > 100 | > 100 | > 100 | > 100 | > 100 | > 100 | > 100 | > 100 | > 100 | > 100 | > 100 | > 100 | > 100 | > 100 | > 100 | > 100 |  |
| CCC(C#N)NC(=O)NC(C#N)CC (centres undefined) | > 100 | > 100 | > 100 | > 100 | > 100 | > 100 | > 100 | > 100 | > 100 | > 100 | > 100 | > 100 | > 100 | > 100 | > 100 | > 100 | > 100 | > 100 | > 100 |  |
| OCC1OC(n2cnc3c(Cl)nc(Nc4ccccc4)nc32)CC1O (centres undefined) | > 100 | > 100 | > 100 | > 100 | > 100 | 36.5 | > 100 | > 100 | 37.8 | > 100 | > 100 | > 100 | > 100 | 66.8 | 10.6 | > 100 | > 100 | > 100 | > 100 |  |
| O=c1oc2ccccc2c(Nc2ccc3c(c2)Oc2ccccc2O3)c1[N+](=O)[O-] | > 100 | 34.6 | > 100 | > 100 | > 100 | > 100 | 64.2 | 38.8 | 53.3 | > 100 | > 100 | 40.5 | 74.9 | 48.9 | 65.5 | > 100 | 46.1 | 79.1 | > 100 |  |
| CC(=O)O[C@H]1C#C/C=C\C#CC[C@@H]2C(=O)N[C@@H]12 | > 100 | 73.3 | 37.6 | > 72.6 | > 78.1 | > 50.2 | > 100 | > 88.3 | > 100 | > 100 | > 100 | > 100 | > 100 | > 100 | > 100 | > 100 | 60.9 | > 100 | > 100 |  |
| CN(NC(=O)c1cccs1)C1=NCCCN1 | > 100 | > 100 | > 100 | > 100 | > 100 | > 100 | > 100 | > 100 | > 100 | > 100 | > 100 | > 100 | > 100 | > 100 | > 100 | > 100 | > 100 | > 100 | > 100 |  |
| C1CCC2C(C1)CCCC2NC1=NCCO1 (centres undefined) | > 100 | > 100 | > 100 | > 100 | > 100 | > 100 | > 100 | > 100 | > 100 | > 100 | > 100 | > 100 | > 100 | > 100 | > 100 | > 100 | > 100 | > 100 | > 100 |  |
| NP(=O)(OCC1=CC(=O)c2ccccc2C1=O)N(CCBr)CCBr (centres undefined) | > 21.1 | 21.8 | 16 |  | > 67.3 | 29.1 | > 25.6 | 28.6 | 4.6 | 3.66 | 10.8 | 25.2 | > 34.2 | 38.3 | 10.9 | > 100 | 14.2 | 29.7 | 4.74 |  |
| Cc1ccc2c(c1)[nH]c1cc(C(F)(F)F)ccc1[p+]2=O (centres undefined) | 31.5 | > 100 | > 100 | > 100 |  | > 100 | > 100 | > 100 | > 100 | > 100 | 52 | 81.9 | > 100 | > 100 | > 100 | 50.2 | > 100 | > 100 | > 100 |  |
| COC(=O)C1=CC(=O)OC1(OO)c1ccccc1 (centres undefined) | > 100 | > 100 | > 100 |  |  | > 100 | > 100 | > 100 | > 100 | > 100 | > 100 | > 100 | > 100 | > 100 | > 100 | 51.1 | > 100 | > 100 | > 100 |  |
| C/C=C/C(O)P1(=O)N(Cc2ccccc2)[C@@H]2CCCC[C@H]2N1Cc1ccccc1 (some centres undefined) | > 25 | > 25 | > 25 | > 25 |  | > 25 | > 25 | > 25 | > 25 | > 25 | > 25 | > 25 | > 25 | > 25 | > 25 | > 25 | > 25 | > 25 | > 25 |  |
